Test results as given in US8575170B2, “Flurbiprofen analogs and methods of use in treating cancer” (The Regents of the Unversity of Colorado, a body corporate, priority 2010, dated 2013).
pIC50: −log10 of the molar value. Where two headings read alike, the source gives them in different places.

How the values were obtained:
H2122 = experiment: MTT cell viability, H2122 lung carcinoma cell line; format: cell-based; details: IC50 values for the H2122 lung carcinoma cell line, Table 5, read-out: H2122 In vitro
Experimental: The ability of the flurbiprofen analog compounds of the invention to inhibit cancer cell growth and survival (viability) in a variety of cancer lines was examined in a standard MTT assay for cell viability, as detailed in Example 2.
The IC50 values given in Tables 1-4 were measured using the B1031 ([…]) compound) shown in Section IIB above. To confirm the generality of the results with respect to other fluribprofen analogs prepared in accordance with the invention, IC50 values for the other 11 analog compounds given in Section IIB were similarly determined for the H2122 lung carcinoma cell line.
The studies reported in Tables 1-3 above were carried out by incubating the cells in the test compound for four days, under standard cell-culture conditions, and measuring cell survival on day 5 (see Example 2).
Cell growth and survival following treatment with N—[(S)-2-Fluoro-α-methyl-4-biphenylacetyl]-[L-(4-phenylphenyl)alanine]-N-(2,2,6,6-tetramethyl-4-piperidinyl)amide (GCBH-110=B1031; (S)-Fmba-L-Bip-Atmp) were measured by a rapid colorimetric assay based on the tetrazolium salt MTT (3-(4,5-dimethylthiazol-2-yl)-2,5-diphenyl tetrazolium bromide) (Mosmann, J. Immunol. Methods 65: 55-63, 1983, with minor modifications).
Briefly, approximately 1,000-5,000 cancer cells from 15 different cancer cells lines were plated in 100 μL of growth medium in 96-well flat-bottomed microtiter plates. Cells were incubated overnight to allow recovery. Compounds to be tested were added to the cells in triplicate in a range of concentrations and the cells were incubated at 37° C., 5% CO2, with 100% humidity. Control cells were treated in the same way without antagonists. […] Plates were incubated for 4 days, allowing sufficient time for cell replication and compound-induced cell death to occur. On day 5, 25 μL of a 2 mg/mL solution of MTT (Sigma) dissolved in RMPI-1640 was added to each well. The plate was incubated for 4 h at 37° C. The supernatant liquid was removed and the blue formazan complex was dissolved by adding 100 μL of 0.02 N HCl in 75% isopropanol to all wells. Absorbance was immediately determined using a scanning multiwell plate reader.

[1] = Solubility of flurbiprofen analog compounds; format: physicochemical; details: medium in which the compound is soluble, Table 5
[2] = test system: H2122 lung carcinoma solid tumor xenograft; experiment: H2122 lung carcinoma xenograft in nude mice; format: in vivo, athymic nude mice; details: 5 mg/kg daily intraperitoneal, from day 7 after implantation, over the 25 days of treatment, FIG. 11
Experimental: The efficacy of the treatment method was examined for both lung carcinoma-cell tumors and pancreatic-cell tumors implanted in athymic mice, according to the method detailed in Example 3. In the first study, mice injected with lung-carcinoma cells were treated, seven days after cancer-cell implantation, by daily injection of 5 mg/kg body weight of one of three different flurbiprofen analog compounds: B1005 (GCBH 104); B1020 (GCBH 108) and B1031 (GCBH 110). Tumor size was measured by calipers at the days indicated in FIG. 11, with final tumor weight and volume being determined by extracting the tumor from the sacrificed animals.
Compounds having high in vitro cytotoxic activity were tested against implanted tumors in vivo. In one study, athymic nude mice were implanted subcutaneously with suspensions of approximately 2 million H2122 lung carcinoma cells, in Matrigel suspension. On the seventh day after tumor implantation, groups of 5 mice bearing implants were injected intraperitoneally with the compounds being tested at 5 mg/kg/every day; control animals were injected with an equal volume of isotonic saline. […] Tumor size was measured with a caliper three times per week. Tumor volume was calculated by the formula: Volume (cc)=3.14×(length)×(width)^2/6
At autopsy, tumors were removed and weighed. Tumor inhibition was calculated on both weight and measurement basis.

HT-29 colon cancer cells = experiment: Loss in cell viability, HT-29 colon cancer cells; format: cell-based; details: Homo sapiens; HT-29 colon cancer cell, FIG. 6A
Experimental: FIGS. 6A and 6B show the loss in cell viability in HT-29 colon cancer cells, in response to increasing concentrations of GH 502 (GCBH 118) (FIG. 6A), and the effect of various treatments, including increasing concentration of GH501 (GCBH 110) on U251 malignant glioma cells and BTIC EF12 brain tumor initiating stem cells (FIG. 6B).
The study shown in FIG. 6A examined the effect of GCBH-118 (GH502) on an HT-29 colon cancer cell, showing an IC50 value of about 1 μM. […] The graph indicates an IC50 value for the B1031 compound against the U251 brain cancer cell line of between 2 and 10 μM.

Row | pIC50 (H2122; Homo sapiens, NCI-H2122) | Solubility [1] [% DMSO] | pIC50 (H2122) | pIC50 (HT-29 colon cancer cells) | SMILES | inhibition of growth of the lung carcinoma cell line H2122 tumor [2] [%]
1 | 5.27 | 50 |  |  | C[C@H](C(=O)NC(CC(=O)NC1CC(C)(C)NC(C)(C)C1)c1ccc(-c2ccccc2)cc1)c1ccc(-c2ccccc2)c(F)c1 (stereo partly drawn) [GCBH-120, N—[(S)-2-Fluoro-α-methyl-4-biphenylacetyl]-[R,S,-β-(p-biphenyl)-β-alanine]-N-(2,2,6,6-tetramethyl-4-piperidinyl)amide] | 
2 | 5.68 | 50 |  |  | C[C@H](C(=O)N[C@@H](Cc1ccc(C(F)(F)F)cc1)C(=O)NC1CC(C)(C)NC(C)(C)C1)c1ccc(-c2ccccc2)c(F)c1 [GCBH-122, N—[(S)-2-Fluoro-α-methyl-4-biphenylacetyl]-[(4-trifluoromethyl)-L-phenylalanine]-N-(2,2,6,6-tetramethyl-4-piperidinyl)amide] | 
3 | 5.60 | 20 |  |  | C[C@H](C(=O)N[C@@H](Cc1ccc(F)cc1)C(=O)NC1CC(C)(C)NC(C)(C)C1)c1ccc(-c2ccccc2)c(F)c1 [GCBH-124, N—[(S)-2-Fluoro-α-methyl-4-biphenylacetyl]-[(4-fluoro)-L-phenylalanine]-N-(2,2,6,6-tetramethyl-4-piperidinyl)amide] | 
4 | 5.85 |  |  | ~6.00 | CC(C(=O)N[C@@H](Cc1cccnc1)C(=O)NC1CC(C)(C)NC(C)(C)C1)c1ccc(-c2ccccc2)c(F)c1 (stereo partly drawn) [GCBH-118, N—[(R,S)-2-Fluoro-α-methyl-4-biphenylacetyl]-(β-3-pyridyl-L-alanine)-N-(2,2,6,6-tetramethyl-4-piperidinyl)amide] | 

More lines, now with the values behind:

Row | SMILES | pIC50 (H2122; Homo sapiens, NCI-H2122) | Solubility [1] [% DMSO] | pIC50 (H2122) | pIC50 (HT-29 colon cancer cells) | inhibition of growth of the lung carcinoma cell line H2122 tumor [2] [%]
5 | CC(C(=O)N[C@@H](CC1CCCCC1)C(=O)NC1CC(C)(C)NC(C)(C)C1)c1ccc(-c2ccccc2)c(F)c1 (stereo partly drawn) [GCBH-116, N—[(R,S)-2-Fluoro-α-methyl-4-biphenylacetyl]-(β-cyclohexyl-L-alanine)-N-(2,2,6,6-tetramethyl-4-piperidinyl)amide] | 5.64 | 20 |  |  | 
6 | CC(C(=O)N[C@@H](Cc1ccc(OCc2c(Cl)cccc2Cl)cc1)C(=O)NC1CC(C)(C)NC(C)(C)C1)c1ccc(-c2ccccc2)c(F)c1 (stereo partly drawn) [GCBH-112, N—[(R,S)-2-Fluoro-α-methyl-4-biphenylacetyl]-[O-(2,6,dichlorobenzyl)-L-tyrosine]-N-(2,2,6,6-tetramethyl-4-piperidinyl)amide] |  | 50 | 5.80 |  | 
7 | CC(C(=O)N[C@@H](Cc1csc2ccccc12)C(=O)NC1CC(C)(C)NC(C)(C)C1)c1ccc(-c2ccccc2)c(F)c1 (stereo partly drawn) [GCBH-114, N—[(R,S)-2-Fluoro-α-methyl-4-biphenylacetyl]-(L-3-benzothienylalanine)-N-(2,2,6,6-tetramethyl-4-piperidinyl)amide] | 5.92 | 50 |  |  | 
8 | C[C@H](C(=O)N[C@@H](Cc1ccc(N(CCCl)CCCl)cc1)C(=O)NC1CC(C)(C)NC(C)(C)C1)c1ccc(-c2ccccc2)c(F)c1 [GCBH-126] | 5.42 | 20 |  |  | 
9 | CC(C(=O)N[C@@H](Cc1ccc(OCc2c(Cl)cccc2Cl)cc1)C(=O)NCCCN1CCN(C)CC1)c1ccc(-c2ccccc2)c(F)c1 (stereo partly drawn) [GCBH-102, N—[(R,S)-2-Fluoro-α-methyl-4-biphenylacetyl]-[O-(2,6,dichlorobenzyl)-L-tyrosine]-N-[3-(4-methyl-1-piperizinyl)propyl]amide] |  | 20 | 5.10 |  | 
10 | CC(C(=O)N[C@@H](Cc1ccc(-c2ccccc2)cc1)C(=O)NC1CC(C)(C)NC(C)(C)C1)c1ccc(-c2ccccc2)c(F)c1 (stereo partly drawn) [GCBH-104, N—[(R,S)-2-Fluoro-α-methyl-4-biphenylacetyl]-[L-(4-phenylphenyl)alanine]-N-(2,2,6,6-tetramethyl-4-piperidinyl)amide] |  |  |  |  | 74
11 | CC(C(=O)N[C@H](C(=O)NC1CC(C)(C)NC(C)(C)C1)C(c1ccccc1)c1ccccc1)c1ccc(-c2ccccc2)c(F)c1 (some centres unmarked) [GCBH-106] | 5.92 | 50 |  |  | 
12 | CC(C(=O)N[C@@H](Cc1ccc(OCc2c(Cl)cccc2Cl)cc1)C(=O)NC1CC(C)(C)NC(C)(C)C1)c1ccc(-c2ccccc2)c(F)c1 (stereo partly drawn) [GCBH-100, N—[(R,S)-2-Fluoro-α-methyl-4-biphenylacetyl]-[O-(2,6,dichlorobenzyl)-L-tyrosine]-N-(2,2,6,6-tetramethyl-4-piperidinyl)amide] | 5.40 | 50 |  |  | 
